Assay results published in publication PMC6856185, “Piezo1 channel activation mimics high glucose as a stimulator of insulin release” (Scientific Reports, 2019).

Molecular target: T1, Piezo1 (Rattus norvegicus, UniProt Q0KL00)
T1 construct: native channel in INS-1 832/13 and BRIN-BD11 rat β-cell lines
Assay: fura-2 Ca2+ influx and whole-cell patch-clamp in INS-1 cells; Piezo1 siRNA reduced Yoda1-induced insulin release
Assay type: cell-based

T1 sequence (Q0KL00 whole entry): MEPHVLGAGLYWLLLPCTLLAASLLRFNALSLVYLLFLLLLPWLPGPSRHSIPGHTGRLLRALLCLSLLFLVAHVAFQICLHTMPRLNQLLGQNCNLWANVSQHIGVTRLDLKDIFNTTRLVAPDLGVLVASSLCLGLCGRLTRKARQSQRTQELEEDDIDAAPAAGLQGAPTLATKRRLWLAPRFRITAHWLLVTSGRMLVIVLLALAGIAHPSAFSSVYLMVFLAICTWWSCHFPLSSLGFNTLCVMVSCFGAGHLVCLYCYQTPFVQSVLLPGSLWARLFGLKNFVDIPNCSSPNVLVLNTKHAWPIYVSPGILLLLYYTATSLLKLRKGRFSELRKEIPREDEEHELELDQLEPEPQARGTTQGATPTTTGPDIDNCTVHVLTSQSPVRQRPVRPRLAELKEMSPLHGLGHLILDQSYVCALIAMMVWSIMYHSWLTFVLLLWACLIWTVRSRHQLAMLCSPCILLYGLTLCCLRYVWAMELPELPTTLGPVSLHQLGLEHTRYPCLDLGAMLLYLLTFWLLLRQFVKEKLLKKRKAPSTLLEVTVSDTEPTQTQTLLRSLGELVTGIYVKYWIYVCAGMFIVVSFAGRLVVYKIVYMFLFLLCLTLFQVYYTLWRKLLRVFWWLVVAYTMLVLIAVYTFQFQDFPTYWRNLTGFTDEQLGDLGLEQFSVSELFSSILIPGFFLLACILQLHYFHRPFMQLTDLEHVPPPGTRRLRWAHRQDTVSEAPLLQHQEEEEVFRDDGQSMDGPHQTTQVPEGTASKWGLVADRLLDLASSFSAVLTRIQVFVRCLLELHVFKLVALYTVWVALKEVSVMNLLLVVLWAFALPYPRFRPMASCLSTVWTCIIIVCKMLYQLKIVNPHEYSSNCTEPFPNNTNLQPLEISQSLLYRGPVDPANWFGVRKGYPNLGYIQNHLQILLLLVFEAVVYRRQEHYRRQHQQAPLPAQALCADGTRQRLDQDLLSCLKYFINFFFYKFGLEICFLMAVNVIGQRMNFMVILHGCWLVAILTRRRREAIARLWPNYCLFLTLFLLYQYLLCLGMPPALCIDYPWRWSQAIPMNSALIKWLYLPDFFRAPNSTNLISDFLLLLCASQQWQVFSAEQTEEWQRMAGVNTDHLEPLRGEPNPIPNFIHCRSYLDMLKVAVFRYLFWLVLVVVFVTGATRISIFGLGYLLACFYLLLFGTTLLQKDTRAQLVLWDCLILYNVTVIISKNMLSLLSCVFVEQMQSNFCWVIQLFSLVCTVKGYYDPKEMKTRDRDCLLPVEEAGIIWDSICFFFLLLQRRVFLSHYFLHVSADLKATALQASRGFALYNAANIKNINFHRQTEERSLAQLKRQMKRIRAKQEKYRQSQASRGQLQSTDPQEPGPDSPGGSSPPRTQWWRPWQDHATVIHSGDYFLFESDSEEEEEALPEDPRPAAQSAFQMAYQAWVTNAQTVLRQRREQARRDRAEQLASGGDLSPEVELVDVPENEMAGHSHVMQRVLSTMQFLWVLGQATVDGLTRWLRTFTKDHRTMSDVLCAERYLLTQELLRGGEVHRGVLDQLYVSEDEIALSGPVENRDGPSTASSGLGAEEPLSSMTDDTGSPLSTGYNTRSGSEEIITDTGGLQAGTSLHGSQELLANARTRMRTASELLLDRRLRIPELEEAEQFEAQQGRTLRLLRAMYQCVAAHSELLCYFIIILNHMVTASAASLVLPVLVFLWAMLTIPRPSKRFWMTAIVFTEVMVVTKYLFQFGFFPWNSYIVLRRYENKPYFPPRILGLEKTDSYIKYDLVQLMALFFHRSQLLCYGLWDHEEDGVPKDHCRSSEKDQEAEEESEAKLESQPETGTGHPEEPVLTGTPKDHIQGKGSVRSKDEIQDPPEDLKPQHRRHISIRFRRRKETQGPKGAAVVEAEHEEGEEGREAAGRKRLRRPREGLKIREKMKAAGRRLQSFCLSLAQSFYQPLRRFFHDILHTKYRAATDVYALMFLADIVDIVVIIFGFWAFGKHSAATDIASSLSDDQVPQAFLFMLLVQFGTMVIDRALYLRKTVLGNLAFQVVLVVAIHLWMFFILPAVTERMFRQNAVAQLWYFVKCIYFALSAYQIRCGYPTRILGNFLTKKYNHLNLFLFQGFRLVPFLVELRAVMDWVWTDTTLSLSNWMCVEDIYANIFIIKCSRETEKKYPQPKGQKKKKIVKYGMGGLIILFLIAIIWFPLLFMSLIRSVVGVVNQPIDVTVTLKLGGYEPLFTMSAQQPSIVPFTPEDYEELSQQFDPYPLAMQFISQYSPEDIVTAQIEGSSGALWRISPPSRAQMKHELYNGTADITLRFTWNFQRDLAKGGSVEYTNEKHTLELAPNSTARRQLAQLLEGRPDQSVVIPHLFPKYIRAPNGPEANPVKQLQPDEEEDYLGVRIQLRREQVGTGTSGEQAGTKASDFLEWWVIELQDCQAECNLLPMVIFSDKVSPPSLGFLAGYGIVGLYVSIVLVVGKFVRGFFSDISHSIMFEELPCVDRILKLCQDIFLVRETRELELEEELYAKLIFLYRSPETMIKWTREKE

EC50: ~4 µM
SMILES: Clc1cccc(Cl)c1CSc1nnc(-c2cnccn2)s1 [Yoda1]
